Each structure is given as a SMILES string. Values joined by “and” are separate entries in the source; they are usually repeats but may differ in a detail not shown here. Equal values may be shown once.

The target of experiment [1] is T1, NOP receptor (Homo sapiens, UniProt P41146).
T1 construct: expressed in transfected cells
The experiment is classed as binding.

In experiment [2] the target is T2, MOP receptor (Homo sapiens, UniProt P35372).
T2 construct: expressed in transfected cells
The experiment is classed as binding.

Experiment [3] addresses T3, DOP receptor (Homo sapiens, UniProt P41143).
T3 construct: expressed in transfected cells
The experiment is classed as binding.

The target of experiment [4] is T4, KOP receptor (Homo sapiens, UniProt P41145).
T4 construct: expressed in transfected cells
T4 sequence (P41145 whole entry): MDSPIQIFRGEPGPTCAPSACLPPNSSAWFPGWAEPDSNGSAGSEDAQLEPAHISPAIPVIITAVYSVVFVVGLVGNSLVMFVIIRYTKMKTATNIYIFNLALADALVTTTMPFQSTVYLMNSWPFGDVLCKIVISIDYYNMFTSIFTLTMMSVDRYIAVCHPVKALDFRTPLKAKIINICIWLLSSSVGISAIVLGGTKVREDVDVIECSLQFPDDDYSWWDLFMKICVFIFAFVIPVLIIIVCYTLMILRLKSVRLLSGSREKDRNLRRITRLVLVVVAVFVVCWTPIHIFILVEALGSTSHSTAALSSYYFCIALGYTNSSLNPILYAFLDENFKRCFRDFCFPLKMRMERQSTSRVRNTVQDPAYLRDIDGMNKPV
The experiment is classed as binding.

For experiment [5], the target named is T1, NOP receptor. In words: [35S]GTPγS binding stimulation (agonist), CHO membranes. The class given is biochemical. The settings on record: for NOP % stim: [35S]GTPγS stimulation relative to standard agonist N/OFQ; for EC50: [35S]GTPγS stimulation, average ± SD.
In experiment [6] the target is T2, MOP receptor. The experiment is classed as biochemical.
For experiment [7], the target named is T3, DOP receptor. In words: [35S]GTPγS binding stimulation (agonist), CHO membranes. The class given is biochemical. As to conditions: for DOP % stim: [35S]GTPγS stimulation relative to standard agonist DPDPE; for EC50: [35S]GTPγS stimulation, * = too little stimulation (if < 15% an EC50 was not always determined).
Experiment [8] deals with T4, KOP receptor. The class given is biochemical.
Experiment [9] concerns the target T2, MOP receptor. Kind of experiment: [35S]GTPγS antagonist assay and Schild analysis versus DAMGO. The class given is biochemical. The settings on record: for Type of antagonism at MOP: Schild analysis.
Where [10] appears, read: antagonist activity in [35S]GTPγS assay, Schild analysis versus DAMGO.

T1 sequence (P41146 whole entry): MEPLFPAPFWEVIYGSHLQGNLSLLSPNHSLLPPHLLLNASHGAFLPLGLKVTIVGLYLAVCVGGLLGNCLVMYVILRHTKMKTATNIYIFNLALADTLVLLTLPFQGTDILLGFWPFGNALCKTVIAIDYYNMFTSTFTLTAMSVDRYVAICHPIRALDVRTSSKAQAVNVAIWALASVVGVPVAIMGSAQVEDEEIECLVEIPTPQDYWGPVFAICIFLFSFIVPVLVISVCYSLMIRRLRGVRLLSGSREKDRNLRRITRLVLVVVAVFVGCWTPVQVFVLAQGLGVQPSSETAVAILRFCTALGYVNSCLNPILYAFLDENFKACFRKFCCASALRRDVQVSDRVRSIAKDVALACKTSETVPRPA
T2 sequence (P35372 whole entry): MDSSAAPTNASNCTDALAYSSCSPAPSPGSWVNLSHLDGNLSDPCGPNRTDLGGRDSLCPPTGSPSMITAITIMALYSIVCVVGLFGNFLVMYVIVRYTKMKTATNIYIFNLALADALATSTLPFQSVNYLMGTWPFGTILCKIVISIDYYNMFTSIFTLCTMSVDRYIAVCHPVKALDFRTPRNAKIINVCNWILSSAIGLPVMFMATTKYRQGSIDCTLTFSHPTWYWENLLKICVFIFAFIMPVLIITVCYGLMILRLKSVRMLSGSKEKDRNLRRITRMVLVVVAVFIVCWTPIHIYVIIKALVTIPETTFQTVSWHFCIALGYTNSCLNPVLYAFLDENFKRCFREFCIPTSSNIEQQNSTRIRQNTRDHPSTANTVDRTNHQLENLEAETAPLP
T3 sequence (P41143 whole entry): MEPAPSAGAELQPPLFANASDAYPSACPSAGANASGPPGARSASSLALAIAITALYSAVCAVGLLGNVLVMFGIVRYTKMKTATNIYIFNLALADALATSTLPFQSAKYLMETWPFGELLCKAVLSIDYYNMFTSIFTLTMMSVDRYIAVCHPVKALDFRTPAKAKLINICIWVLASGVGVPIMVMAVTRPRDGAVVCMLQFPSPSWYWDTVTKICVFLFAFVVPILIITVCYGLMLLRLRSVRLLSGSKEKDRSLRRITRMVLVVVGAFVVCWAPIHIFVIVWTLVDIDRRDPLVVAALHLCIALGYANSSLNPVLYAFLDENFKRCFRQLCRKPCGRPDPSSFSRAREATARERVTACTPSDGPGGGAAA

`O=C(Cc1ccccc1)O[C@@]12CCC(=O)[C@@H]3Oc4c(O)ccc5c4[C@@]31CCN(CC1CC1)[C@@H]2C5` [Compound 7a, 14β-phenylacetyl-17-cyclopropylmethyl-7,8-dihydronoroxymorphinone]: the Ki amounted to 127 ± 17 nM in experiment [1], 0.86 ± 0.18 nM in experiment [2], 3.1 ± 0.6 nM in [3] and 1.14 ± 0.46 nM in [4]. The NOP % stim in experiment [5] was 28.1 ± 4.8%. Besides, the EC50 in experiment [5] was 401 ± 161 nM; in [6], 3.8 ± 1.8 nM; in experiment [7], 5.6 ± 0.4 nM; in experiment [8], 1.2 ± 0.6 nM. The compound further gave an MOP % stim in experiment [6] of 31.6 ± 4.2%. Further, the DOP % stim in [7] worked out at 30.5 ± 5.5%. For the same compound, in [8], the KOP % stim was 44.5 ± 13%.
With `Cc1ccc(CC(=O)O[C@@]23CCC(=O)[C@@H]4Oc5c(O)ccc6c5[C@@]42CCN(CC2CC2)[C@@H]3C6)cc1` [Compound 7b, 14β-(4′-methylphenylacetyl)-17-cyclopropylmethyl-7,8-dihydronoroxymorphinone], the Ki in [1] is 36.3 ± 4.2 nM; in experiment [2], 1.87 ± 0.09 nM; in experiment [3] it was 1.7 ± 0.2 nM; in experiment [4] it was 1.56 ± 0.28 nM. For the same compound, in [5], the NOP % stim turned out to be 22.3 ± 1.4%. Further, the concentration for a half-maximal effect (EC50) in experiment [5] was determined as 169 ± 3.4 nM; in experiment [6], 1.6 ± 0.9 nM; in experiment [7], 3.8 ± 1.1 nM; in [8] it was 6.3 ± 2.2 nM. In experiment [6], this compound displayed an MOP % stim of 34.9 ± 2.0%. In experiment [7], the DOP % stim is 27.0 ± 4.8%. The compound further had a KOP % stim in [8] of 11.5 ± 2.7%.
As to `Cc1ccccc1CC(=O)O[C@@]12CCC(=O)[C@@H]3Oc4c(O)ccc5c4[C@@]31CCN(CC1CC1)[C@@H]2C5` [Compound 7c, 14β-(2′-methylphenylacetyl)-17-cyclopropylmethyl-7,8-dihydronoroxymorphinone], the Ki came out at 44.1 ± 3.1 nM in experiment [1], 3.59 ± 0.86 nM in [2], 1.97 ± 0.19 nM in experiment [3] and 1.69 ± 1.2 nM in experiment [4]. In experiment [5], this compound showed an NOP % stim of 21.1 ± 1.4%. Moreover, the concentration for a half-maximal effect (EC50) is 106 ± 32.2 nM in experiment [5], 2.2 ± 0.2 nM in experiment [6], 201 ± 59 nM in experiment [7] and 2.9 ± 1.8 nM in experiment [8]. In experiment [6], the MOP % stim amounted to 41.9 ± 1.4%. Moreover, the DOP % stim in experiment [7] was found to be 12.6 ± 3.1%. Moreover, the KOP % stim in experiment [8] was 86% and 86.3 ± 6.5%.
For the compound `Cc1cccc(CC(=O)O[C@@]23CCC(=O)[C@@H]4Oc5c(O)ccc6c5[C@@]42CCN(CC2CC2)[C@@H]3C6)c1` [Compound 7d, 14β-(3′-methylphenylacetyl)-17-cyclopropylmethyl-7,8-dihydronoroxymorphinone], the inhibition constant (Ki) in experiment [1] is 49.9 ± 3.5 nM; in experiment [2] it was 1.91 ± 0.51 nM; in experiment [3] it was 5.58 ± 0.22 nM; in experiment [4] it was 2.8 ± 0.91 nM. The same compound registered an NOP % stim in experiment [5] of 59.3 ± 2.4%. Moreover, the EC50 is 855 ± 185 nM in experiment [5], 5.2 ± 2 nM in experiment [6], 21.3 ± 2.2 nM in [7] and 1 ± 0.3 nM in [8]. Also, the MOP % stim in experiment [6] was 40.1 ± 4.4%. In experiment [7], this compound registered a DOP % stim of 15.8 ± 0.1%. Further, the KOP % stim in [8] came out at 46.4 ± 3.6%.
With `COc1cccc(CC(=O)O[C@@]23CCC(=O)[C@@H]4Oc5c(O)ccc6c5[C@@]42CCN(CC2CC2)C3C6)c1` [Compound 7e, 14β-(3′-methoxyphenylacetyl)-17-cyclopropylmethyl-7,8-dihydronoroxymorphinone], the Ki in experiment [1] was 50.1 ± 2.7 nM; in [2], 1.1 ± 0.08 nM; in experiment [3] it was 3.61 ± 0.34 nM; in experiment [4] it was 1.44 ± 0.33 nM. The same compound returned an NOP % stim in experiment [5] of 36.1 ± 0.3%. Further, the EC50 in experiment [5] worked out at 374 ± 81.6 nM; in experiment [6], 13.3 ± 2.2 nM; in [7] it was 9.9 ± 0.2 nM; in experiment [8], 1.7 ± 0.4 nM. This compound also displayed an MOP % stim in experiment [6] of 11.3 ± 1.3%. In experiment [7], this compound yielded a DOP % stim of 35.7 ± 0.7%. For the same compound, in experiment [8], the KOP % stim came out at 46.3 ± 8.1%.
`O=C(Cc1ccc2c(c1)OCO2)O[C@@]12CCC(=O)[C@@H]3Oc4c(O)ccc5c4[C@@]31CCN(CC1CC1)[C@@H]2C5` [Compound 7g, 14β-(3′,4′-dioxymethylenephenylacetyl)-17-cyclopropylmethyl-7,8-dihydronoroxymorphinone]: the Ki in experiment [1] is 94.3 ± 28 nM; in experiment [2] it was 0.99 ± 0.35 nM; in experiment [3], 1.25 ± 0.2 nM; in [4], 1.2 ± 0.42 nM. This compound also came in with an NOP % stim in experiment [5] of 43.5 ± 9.4%. The EC50 stood at 562 ± 67.5 nM in experiment [5] and 5.4 ± 0.1 nM in experiment [8]. For the same compound, in experiment [6], the MOP % stim is 12.1 ± 3.7%. In experiment [8], this compound gave a KOP % stim of 41.1 ± 0.9%. Further, the “Type of antagonism at MOP” value in [9] is reported as “very potent competitive antagonists”. For the same compound, the “MOP pA2” value in [9] (setting [10]) worked out at 10.29 ± 0.24. The “MOP Ke” value in experiment [9] (antagonist activity in [35S]GTPγS assay, Schild analysis versus DAMGO, unit not given) is on record as 0.051 ± 0.018.
Take `COc1ccccc1CC(=O)O[C@@]12CCC(=O)[C@@H]3Oc4c(O)ccc5c4[C@@]31CCN(CC1CC1)[C@@H]2C5` [Compound 7h, 14β-(2′-methoxyphenylacetyl)-17-cyclopropylmethyl-7,8-dihydronoroxymorphinone]: the Ki in experiment [1] was 62.3 ± 4.9 nM; in experiment [2], 3.77 ± 0.9 nM; in experiment [4] it was 3.52 ± 0.9 nM. The compound also gave an NOP % stim in [5] of 40.8 ± 5.4%. Also, the EC50 in experiment [5] is 479 ± 33.3 nM; in experiment [6] it was 0.5 ± 0.1 nM; in experiment [8] it was 1.6 ± 0.3 nM. The MOP % stim in experiment [6] turned out to be 37.3 ± 0.7%. In experiment [7], this compound yielded a DOP % stim of 19.2 ± 4.9%. Also, the KOP % stim in experiment [8] is reported as 50.4 ± 6.0%.
In the case of `O=C(Cc1ccccc1F)O[C@@]12CCC(=O)[C@@H]3Oc4c(O)ccc5c4[C@@]31CCN(CC1CC1)[C@@H]2C5` [Compound 7i, 14β-(2′-fluorophenylacetyl)-17-cyclopropylmethyl-7,8-dihydronoroxymorphinone], the Ki turned out to be 69.7 ± 2.4 nM in [1], 2.59 ± 1.1 nM in experiment [2], 4.07 ± 0.91 nM in experiment [3] and 4.55 ± 0.7 nM in [4]. This compound also returned an NOP % stim in [5] of 14.5 ± 2.9%. The EC50 is 94.1 ± 24.7 nM in [5], 2 ± 0.7 nM in experiment [6] and 4 ± 2 nM in experiment [8]. In experiment [6], this compound gave an MOP % stim of 27.9 ± 2.8%. In [8], the KOP % stim is 43.8 ± 4.7%.
Regarding `O=C(Cc1ccc(Cl)cc1)O[C@@]12CCC(=O)[C@@H]3Oc4c(O)ccc5c4[C@@]31CCN(CC1CC1)C2C5` [Compound 7j, 14β-(4′-chlorophenylacetyl)-17-cyclopropylmethyl-7,8-dihydronoroxymorphinone], the Ki in [1] worked out at 51.3 ± 14 nM; in [2], 1.78 ± 0.03 nM; in experiment [3], 4.95 ± 1.1 nM; in [4] it was 3.95 ± 0.59 nM. The same compound yielded an NOP % stim in experiment [5] of 18.9 ± 2.7%. In addition, the EC50 in [5] worked out at 298 ± 18.6 nM; in experiment [8] it was 5.4 ± 1.3 nM. The MOP % stim in experiment [6] worked out at 8.2 ± 7.2%. Further, the DOP % stim in experiment [7] was determined as 37.2 ± 0.2%. This compound also returned a KOP % stim in experiment [8] of 37.1 ± 0.2%. Further, the “Type of antagonism at MOP” value in experiment [9] was “non-competitive”. In addition, the “MOP pA2” value in experiment [9] (setting [10]) was “Non-competitive”.
Consider `O=C(Cc1ccccc1Cl)O[C@@]12CCC(=O)[C@@H]3Oc4c(O)ccc5c4[C@@]31CCN(CC1CC1)[C@@H]2C5` [Compound 7k, 14β-(2′-chlorophenylacetyl)-17-cyclopropylmethyl-7,8-dihydronoroxymorphinone], for which the inhibition constant (Ki) was found to be 32.6 ± 2.3 nM in [1], 4.66 ± 1.8 nM in [2], 3.24 ± 0.15 nM in experiment [3] and 1.34 ± 0.5 nM in [4]. The compound also had an NOP % stim in experiment [5] of 49.9 ± 0.7%. Besides, the half-maximal effective concentration (EC50) in experiment [5] stood at 808 ± 45.8 nM; in experiment [6] it was 2.4 ± 0.6 nM; in experiment [8], 13.9 ± 6.4 nM. This compound returned an MOP % stim in experiment [6] of 39.3 ± 4.7%. The compound further returned a KOP % stim in experiment [8] of 31.3 ± 5.6%.
